The subject of assay [1] is aqueous industrial systems. The note with it: U.S. Pat. Nos. 5,607,597 and 5,736,056; cited from earlier work.
Assay [2] deals with B. subtilus (ATCC23059). Briefly: B. subtilus in synthetic medium, serial dilution and plating. In kind it is cell-based. As to the method:
By definition a potentiator compound will not, by itself, kill or inhibit the bacterial population. The non-toxicity of bistridecylsulfosuccinate to B. subtilus is illustrated in Table 4. One ml of bacteria from an overnight culture was used to innocculate shake flasks containing 50 mls of fresh synthetic medium. The synthetic medium (as described previously) was augmented with increasing amounts of bistridecylsulfosuccinate. Serial dilution and plating was carried out to compare the efficacy of each treatment. The culture of B. subtilus was grown in the presence of 0, 5, 10, and 20 mg/l bistridecylsulfosuccinate (Btdss). Plating was carried out at 2.5 hours and 5 hours of incubation. […] The control had no treatment.

The test system of assay [3] is B. cereus ATCC14579. Briefly: B. cereus in synthetic medium, serial dilution and plating. It counts as cell-based. The note with it: 20 mg/l bistridecylsulfosuccinate with 1 or 2 mg/l isothiazolinone. An excerpt: The spore forming bacterium B. cereus is of particular concern because of its pathogenic properties. Most incidents of food poisoning attributed to the genus Bacillus are caused by B. cereus. B. cereus is a common concern in production of dairy products. There is particular concern about this organism in powered milk based products for infants. This is a concern not only to producers of these goods but also to the manufacturers of packaging and containers for such products. […] A culture of B. cereus ATCC14579 was treated with isothiazolinone alone and isothiazolinone with bistridecylsulfosuccinate One ml of bacteria from an overnight culture was used to innocculate shake flasks containing 50 mls of fresh synthetic medium. The synthetic medium (as described previously) was dosed with isothiazolinone at one or two mg/l concentration; or isothiazolinone in conjunction with 20 mg/l bistridecylsulfosuccinate. Cultures were maintained shaking at 37° C. then carried through serial dilution and plated at 3 and 5 hour time points.

Consider bistridecylsulfosuccinate [Btdss], for which the “Effect on efficacy of isothiazolinone” value in assay [1] is recorded as “loss of efficacy”. Further, the “B. subtilus count in synthetic medium” value is reported as 3.40 × 10^6 in assay [2] (5 mg/l Btdss alone, 2.4 Hour); 4.00 × 10^6 in assay [2] (5 mg/l Btdss alone, 5 Hour); 2.8 × 10^6 in assay [2] (10 mg/l Btdss alone, 2.4 Hour); 3.90 × 10^7 in assay [2] (10 mg/l Btdss alone, 5 Hour); 3.00 × 10^6 in assay [2] (20 mg/l Btdss alone, 2.4 Hour); 3.6 × 10^7 in assay [2] (20 mg/l Btdss alone, 5 Hour). Besides, the “Growth of treated cultures relative to the untreated control” value in assay [2] (5, 10, and 20 mg/l bistridecylsulfosuccinate alone) is recorded as “increased growth relative to the untreated control”. In assay [2] (alone, at concentrations at least as high as 20 mg/l), the “Toxicity to B. subtilus” value is recorded as “non-toxic”. In assay [3], the “Effect on efficacy of isothiazolinone against B. cereus” value is given as “greatly enhanced the efficacy of isothiazolinone”.
For dinonylsulfosuccinates, the “Effect on efficacy of isothiazolinone” value in assay [1] is “enhance the efficacy of isothiazolinone”.
Turning to `CCCCC(CC)COC(=O)CC(C(=O)OCC(CC)CCCC)S(=O)(=O)O` (stereo not drawn) [dioctyl, dioctylsulfosuccinate], in assay [1], the “Effect on efficacy of isothiazolinone” value was “enhance the efficacy of isothiazolinone”.

Source of the values: patent publication US20080269337A1, “Method for the enhancing biocidal activity” (priority 2007, published 2008).
